≈ marks a conversion by molar mass, not a printed value. Entries after “also recorded” stand apart in the source; their conditions may differ.
Key:
[1] = system: MRSA (NRS384 strain of USA300); assay: MIC determination / killing of intracellular bacteria in mouse peritoneal macrophages; type: cell-based, Staphylococcus aureus; conditions: for killing of intracellular MRSA sequestered inside macrophages: doses including clinically achieveable serum levels
[2] = system: MRSA (NRS384 strain of USA300); assay: MIC determination for extracellular bacteria; type: cell-based; conditions: Staphylococcus aureus, read-out: Extracellular MRSA MIC
Protocol: Dilutions of the antibiotic were made in quadruplicate in 96 well culture dishes. MRSA (NRS384 strain of USA300) was taken from an exponentially growing culture and diluted to 1×10^4 CFU/mL. Bacteria was cultured in the presence of antibiotic for 18-24 hours with shaking at 37° C. and bacterial growth was determined by reading the Optical Density (OD) at […]. The MIC was determined to be the dose of antibiotic that inhibited bacterial growth by >90%.

MRSA [3] = assay: Intravenous infection model, established infection in CB17.SCID mice; type: in vivo; conditions: treated 1 day after infection; AAC 50 mg/Kg, antibiotic 0.5 mg/Kg; kidneys day 4
Protocol: Mice were treated with the AAC 30 minutes after infection. To better replicate conditions likely to occur in MRSA patients seeking treatment, it was determined whether the AAC is effective at clearing an established infection and that linking of the antibiotic to an anti-S. aureus antibody provides a definite advantage over treatment with antibiotic alone. To this end, the efficacy of AAC with an equivalent dose of the antibiotic dimethyl-pipBOR was compared.
One day after infection, the mice were treated with 50 mg/Kg of S4497 antibody, 50 mg/Kg of S4497 dimethyl-pipBOR AAC 105 or with 0.5 mg/Kg of dimethyl-pipBOR antibiotic 7, the equivalent dose of antibiotic that is contained in 50 mg/Kg of AAC). Mice were sacrificed 4 days after infection and the total number of surviving bacteria per mouse (2 kidneys pooled) was determined by plating.
7 week old female mice were used for all in vivo experiments and infections were carried out by intravenous injection into the tail vein. A/J mice (Jackson Lab) were infected with a dose of 2×10^6 CFU. Balb/c mice (Charles River Laboratories, Hollister, Calif.) were infected with a dose of 2×10^7 CFU. […] The total number of bacteria recovered per mouse (2 kidneys) was determined by plating serial dilutions of the tissue homogenate in PBS 0.05% Tween on Tryptic Soy Agar with 5% defibrinated sheep blood.

[4] = system: USA300 strain of MRSA (NRS384); assay: In vitro macrophage assay (intracellular killing of opsonized MRSA); type: cell-based, Staphylococcus aureus; conditions: for Macrophage assay activity: in vitro macrophage assay (Example 18), grades 0, weak, 1+ not defined; for CFU/well after treatment: 100 μg/mL, reduced from 10,000 CFU/well
Protocol: (§1) Peritoneal macrophages were isolated from the peritoneum of 6-8 week old Balb/c mice (Charles River Laboratories, Hollister, Calif.). To increase the yield of macrophages, mice were pre-treated by intraperitoneal injection with 1 mL of thioglycolate media (Becton Dickinson). The thioglycolate media was prepared at a concentration of 4% in water, sterilized by autoclaving, and aged for 20 days to 6 months prior to use. Peritoneal macrophages were harvested 4 days post treatment with thioglycolate by washing the peritoneal cavity with cold phosphate buffered saline. Macrophages were plated in Dulbecco's Modified Eagle Medium (DMEM) supplemented with 10% Fetal Calf Serum, and 10 mM HEPES, without antibiotics, at a density of 4×10^5 cells/well in 24 well culture dishes. Macrophages were cultured over night to permit adherence to the plate. This assay was also utilized to test intracellular killing in non-phagocytic cell types. MG63 (CRL-1427) and A549 (CCL185) cell lines were obtained from ATCC and maintained in RPMI 1640 tissue culture media supplemented with 10 mM Hepes and 10% Fetal Calf Serum (RPMI-10). HUVEC cells were obtained from Lonza and maintained in EGM Endothelial Cell Complete Media (Lonza, Walkersville, Md.).

MRSA (USA300 strain) [5] = assay: Intracellular killing in macrophages and non-phagocytic cell types (MG63, A549, HUVEC); type: cell-based, Staphylococcus aureus; conditions: 50 μg/mL, macrophages
Text: MRSA is able to invade a number of non-phagocytic cell types including osteoblasts and various epithelial and endothelial cell types (Garzoni and Kelly, (2008) Trends in Microbiology). MRSA is able to infect an osteoblast cell line (MG63), an airway epithelial cell line (A549) and primary cultures of human umbilical vein endothelial cells (HUVEC). […] The dashed line indicates the limit of detection for the assay.
as §1, with “MG63 (CRL-1427) and A549 (CCL185) cell lines were obtained from ATCC and maintained in RPMI 1640 tissue culture media supplemented with 10 mM Hepes and 10% Fetal Calf Serum (RPMI-10). HUVEC cells were obtained from Lonza and maintained in EGM Endothelial Cell Complete Media (Lonza, Walkersville, Md.).” left out

MRSA (USA300 strain) [6] = assay: Intravenous infection model in A/J mice; type: in vivo
MRSA [7] = assay: Cathepsin release / growth inhibition assay; type: cell-based, S. aureus; conditions: overnight culture, up to 10 μg/mL of AAC
Protocol: An AAC comprising antibody rF1, which binds to a family of cell wall associated proteins was conjugated to a rifamycin derivative. S. aureus (Newman strain) was treated with various doses of the rF1-AAC or with equivalent doses of either antibody alone, rifampicin alone or a mixture of antibody and free rifampicin to permit antibody binding to the bacteria (opsonization) and after 1 hour incubation the opsonized bacteria were fed to macrophages (FIG. 7A).
See: page 863 of Dubowchik et al (2002) Bioconj. Chem. 13:855-869, incorporated by reference for the purposes of this assay. Cathepsin B (from bovine spleen, SIGMA C7800) was added at 10 μg/mL and the samples were incubated for 1 hour at 37° C. As a control, AAC were incubated in buffer alone. The reaction was stopped by addition of 10 volumes of bacterial growth media, Tryptic Soy Broth pH 7.4 (TSB). To estimate the total release of active antibiotic, serial dilutions of the reaction mixture were made in quadruplicate in TSB in 96 well plates and the USA300 strain of S. aureus was added to each well at a final density of 2×10^3 CFU/mL. The cultures were incubated over night at […] with shaking and bacterial growth was measured by reading absorbance at 630 nm using a plate reader.

MRSA (USA300) = assay: Peritonitis model (intraperitoneal infection); type: in vivo, A/J mice; conditions: 50 mg/Kg thirty minutes after infection; 2 days
Text: An in vivo peritonitis model in mice was established to test the efficacy of AAC. In this model, mice are infected by intraperitoneal injection (I.P.) of MRSA and the bacterial load is monitored 2 days after infection in the peritoneal fluid and kidney. Bacteria harvested from the peritoneum could be found either as free floating extracellular bacteria or internalized inside peritoneal cells—primarily neutrophils and macrophages—that are recruited to the site of the infection.
Intraperitoneal infection model in A/J mice. Mice were infected with 5×10^7 CFU of MRSA by intraperitoneal injection and treated with 50 mg/Kg of S4497 antibody alone or with 50 mg/Kg of the S4497-pipBOR AAC 102 by intraperitoneal injection (protocol 11-2032A). Mice were sacrificed 2 days post infection and the total bacterial load was assessed in the peritoneal supernatant (Extracellular bacteria), peritoneal cells (Intracellular bacteria) or in the kidney.
A/J mice were infected with USA300 and administered 50 mg/Kg of either S4497 antibody or S4497-pipBOR AAC 102 thirty minutes after infection. After 2 days, the mice were sacrificed and bacterial loads were monitored in the peritoneal wash and the kidney. To distinguish between extracellular and intracellular bacteria, the peritoneal wash was centrifuged gently to separate the supernatant, containing extracellular bacteria, and the peritoneal cells. […]

CCCCCCCCCC(=O)N[C@@H](Cc1c[nH]c2ccccc12)C(=O)N[C@H](CC(N)=O)C(=O)N[C@@H](CC(=O)O)C(=O)N[C@@H]1C(=O)NCC(=O)N[C@@H](CCCN)C(=O)N[C@@H](CC(=O)O)C(=O)N[C@H](C)C(=O)N[C@@H](CC(=O)O)C(=O)NCC(=O)N[C@H](CO)C(=O)N[C@@H]([C@H](C)CC(=O)O)C(=O)N[C@@H](CC(=O)c2ccccc2N)C(=O)O[C@@H]1C [Daptomycin]
MIC ([1]; Staphylococcus aureus, 24 h, MRSA inside mouse peritoneal macrophages, […]): > 100 µg/mL | killing of intracellular MRSA sequestered inside macrophages [1]: failed to kill | MIC [2]: 4 µg/mL (≈ 2.47 µM)

CC(=O)NC[C@H]1CN(c2ccc(N3CCOCC3)c(F)c2)C(=O)O1 [Linezolid]
killing of intracellular MRSA sequestered inside macrophages [1]: failed to kill

CO[C@H]1/C=C/O[C@@]2(C)Oc3c(C)c(O)c4c(=O)c(c5oc6cc(N7CCC(N(C)C)CC7)cc(O)c6nc-5c4c3C2=O)NC(=O)/C(C)=C\C=C\[C@H](C)[C@H](O)[C@@H](C)[C@@H](O)[C@@H](C)[C@H](OC(C)=O)[C@@H]1C [dimethyl-pipBOR, dimethylpiperidyl benzoxazino rifamycin]
efficacy against established infection (MRSA [3]): failed to clear the infection | killing of intracellular MRSA as free antibiotics relative to rifampicin [1]: more potent than rifampicin

piperidyl benzoxazino rifamycin [pipBOR]
killing of intracellular MRSA as free antibiotics relative to rifampicin [1]: more potent than rifampicin

thio-S4497 WT (V8), LC V205C-(thiostrepton) [AAC 128]
Macrophage assay activity [4]: 0

thio-S4497-HC-A118C-MC-vc-PAB-(clindamycin) [AAC 101]
Macrophage assay activity [4]: 0

thio-S4497-HC-A118C-MC-vc-PAB-(novobiocin) [AAC 102]
Macrophage assay activity [4]: 0

thio-S4497-HC-A118C-MC-vc-PAB-(retapamulin) [AAC 103]
Macrophage assay activity [4]: 0

thio-S4497-HC-A118C-MC-vc-PAB-(triclosan) [AAC 109]
Macrophage assay activity [4]: 0

thio-S4497-HC-A118C-MC-vc-PABC-(GSK-2140944) [AAC 105]
Macrophage assay activity [4]: 0

thio-S4497-HC-A118C-MC-vc-PABC-(ampicillin) [AAC 113]
Macrophage assay activity [4]: 0

thio-S4497-HC-A118C-MC-vc-PABC-(daptomycin) [AAC 104]
Macrophage assay activity [4]: 0

thio-S4497-HC-A118C-MC-vc-PABC-(pipBOR) [S4497-pipBOR AAC 102]
intracellular killing of MRSA (MRSA (USA300 strain) [5]): effectively killed | efficacy at 50 mg/Kg (kidney bacterial load) (MRSA (USA300 strain) [6]; 50 mg/Kg IV 30 minutes post infection, kidneys 4 days post infection): cleared the infection in all of the mice tested; also recorded: effective | efficacy at lower doses (MRSA (USA300 strain) [6]; doses below 50 mg/Kg down to 2 m/Kg, 30 minutes after infection): only partially efficacious | inhibition of bacterial growth by AAC not pre-treated with cathepsin B (MRSA [7]): did not result in inhibition of bacterial growth | clearance of infection (peritoneal wash and kidney) (MRSA (USA300)): cleared the infection to below the limit of detection

thio-S4497-HC-A118C-MC-vc-PABC-(sitafloxacin) [AAC 107]
CFU/well after treatment [4]: about 5,000 CFU/well | Macrophage assay activity [4]: weak

thio-S4497-HC-A118C-MC-vc-PABC-(teicoplanin) [AAC 108]
CFU/well after treatment [4]: about 500 CFU/well | Macrophage assay activity [4]: weak

thio-S4497-v8-LC-V205C-(azithromycin) [AAC 121]
Macrophage assay activity [4]: 0

thio-S4497-v8-LC-V205C-(thiostrepton) [AAC 141]
Macrophage assay activity [4]: 0

thio-S4497-v8-LC-V205C-MC-vc-PABC-(teicoplanin) [AAC 140]
Macrophage assay activity [4]: 0

thio-S4497-v8-LC-cys-MC-vc-PAB-(nosiheptide) [AAC 149]
Macrophage assay activity [4]: 0

Reference: patent publication US9884126B2, “Anti-wall teichoic antibodies and conjugates” (priority 2013, dated 2018)
